The target of the test is G551D‐CFTR (Homo sapiens, UniProt P13569, G551D). Nature of the test: Ussing chamber apical Cl− current (ICl apical) in FRT epithelia expressing G551D‐CFTR. The class given is cell-based. Also noted: assays at Charles River Laboratories (ChanTest). As to conditions: for EC50: G551D‐CFTR FRT epithelia, ICl apical, 27°C, read-out: EC50 (μM) (95% CI); for Emax: read-out: Maximal effect (%) (95% CI). As to the method: Ussing chamber studies to determine the concentration–response relationships of CFTR potentiators (Figure 1c–f) were performed at Charles River Laboratories (ChanTest) (Cleveland, OH, USA). For these studies, FRT cells were stably transfected with CFTR cDNAs with the F508del and G551D variants and the common polymorphism M470 (synthesised by System Biosciences, Palo Alto, CA, USA) using the Flp‐In™ system (Thermo Fisher Scientific, Waltham, MA, USA). The F508del‐CFTR cDNA contained the following differences from the canonical CFTR cDNA sequence (NCBI Accession Number NM_000492): del CTT (1521–1523) to delete F508; synonymous changes T > C (798), A > G (801), T > C (804) to remove a cryptic bacterial promoter; synonymous change T > C (1095); G > A (1408) to give M470 and was amplified using the primers 5′ […] 3′ and 5′ […] 3′. The G551D‐CFTR cDNA contained the following differences from the canonical CFTR cDNA sequence (NCBI Accession Number NM_000492): G > A (1652) to replace G551 with D551; synonymous changes T > C (798), A > G (801), T > C (804) to remove a cryptic bacterial promoter; synonymous change A > C (516); synonymous change T > C (1095); G > A (1408) to give M470 and was amplified using the primers 5′ […] 3′ and 5′ […] 3′. Using Kpn1 and Not1 restriction sites, the F508del‐ and G551D‐CFTR cDNAs were inserted into pcDNA5/FRT (Flp‐In™) (RRID:Addgene_31984). An FRT cell line stably expressing a flippase (Flp)‐recombinase recognition target integration site (generated by Evotec AG, Hamburg, Germany, using isogenic FRT cells from LJV Galietta) was transfected with the F508del‐ and G551D‐CFTR plasmids and the Flp recombinase plasmid pOG44 (RRID:Addgene_129419) following the manufacturer's instructions. To identify FRT cells expressing F508del‐ and G551D‐CFTR, cells were grown under hygromycin selection and individual clones picked, expanded, and verified for CFTR expression. For Ussing chamber studies to determine the plasma membrane stability of F508del‐CFTR, FRT cells expressing F508del‐CFTR from LJV Galietta were cultured and used as described previously (Meng et al., [2017]).
To grow FRT cells as polarised epithelia, 2 × 10^5 FRT cells were seeded on Snapwell filter inserts and cultured for 7–14 days before use; media were changed every 2–3 days. […]
To test the effects of CP‐628006 on CFTR Cl^− channels in the apical membrane of FRT epithelia, we permeabilized the basolateral membrane with amphotericin B (100 μM). After cancelling voltage offsets, we clamped transepithelial voltage at 0 mV and measured apical Cl^− current (ICl ^apical) continuously using a Physiologic Instruments VCC MC6/8 multichannel voltage/current clamp (Li et al., [2004]).

Chain of G551D‐CFTR (P13569 whole entry G551D): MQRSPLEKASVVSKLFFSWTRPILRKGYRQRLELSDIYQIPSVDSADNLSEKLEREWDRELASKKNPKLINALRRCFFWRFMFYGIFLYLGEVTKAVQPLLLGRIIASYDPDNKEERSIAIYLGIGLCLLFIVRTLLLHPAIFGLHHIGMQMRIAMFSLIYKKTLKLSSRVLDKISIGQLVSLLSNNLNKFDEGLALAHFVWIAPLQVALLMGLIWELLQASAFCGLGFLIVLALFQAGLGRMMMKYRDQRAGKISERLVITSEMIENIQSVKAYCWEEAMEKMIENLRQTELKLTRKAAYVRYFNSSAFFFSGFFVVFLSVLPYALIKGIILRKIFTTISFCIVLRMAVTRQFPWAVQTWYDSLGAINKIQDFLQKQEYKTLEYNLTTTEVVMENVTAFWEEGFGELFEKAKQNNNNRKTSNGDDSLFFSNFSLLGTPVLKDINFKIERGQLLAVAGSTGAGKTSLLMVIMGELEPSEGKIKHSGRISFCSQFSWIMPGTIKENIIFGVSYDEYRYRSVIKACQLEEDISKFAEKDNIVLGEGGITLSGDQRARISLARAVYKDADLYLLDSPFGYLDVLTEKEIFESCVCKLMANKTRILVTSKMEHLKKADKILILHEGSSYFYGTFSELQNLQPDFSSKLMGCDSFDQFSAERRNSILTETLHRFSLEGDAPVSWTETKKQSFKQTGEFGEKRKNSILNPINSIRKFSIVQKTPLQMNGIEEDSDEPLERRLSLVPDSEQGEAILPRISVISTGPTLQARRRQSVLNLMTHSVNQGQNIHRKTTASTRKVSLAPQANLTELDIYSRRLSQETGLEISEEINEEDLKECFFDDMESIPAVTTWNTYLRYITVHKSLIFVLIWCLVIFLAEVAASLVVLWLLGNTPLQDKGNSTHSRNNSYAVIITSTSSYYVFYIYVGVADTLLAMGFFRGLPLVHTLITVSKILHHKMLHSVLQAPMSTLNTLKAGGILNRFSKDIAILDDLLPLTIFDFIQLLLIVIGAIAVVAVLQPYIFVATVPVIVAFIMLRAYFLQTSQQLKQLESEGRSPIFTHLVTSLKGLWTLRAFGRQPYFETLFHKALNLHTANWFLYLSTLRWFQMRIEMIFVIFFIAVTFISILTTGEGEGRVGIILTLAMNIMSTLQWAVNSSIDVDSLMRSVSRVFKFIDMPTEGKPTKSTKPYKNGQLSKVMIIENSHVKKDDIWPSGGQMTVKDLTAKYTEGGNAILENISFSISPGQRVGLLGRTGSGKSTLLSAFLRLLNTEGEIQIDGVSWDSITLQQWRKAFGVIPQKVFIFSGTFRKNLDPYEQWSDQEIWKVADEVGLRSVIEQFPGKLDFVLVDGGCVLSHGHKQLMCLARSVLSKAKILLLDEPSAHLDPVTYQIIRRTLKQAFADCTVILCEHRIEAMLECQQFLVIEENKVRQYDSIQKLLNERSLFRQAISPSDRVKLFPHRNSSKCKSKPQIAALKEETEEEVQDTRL

`Cc1ncccc1CNC(=O)c1ccc2c(c1)CC[C@H]1C[C@](O)(CCC(F)(F)F)CC[C@]21Cc1ccccc1` (racemic) [CP‐628006, rac‐(4bR,7R,8aS)‐4b‐benzyl‐7‐hydroxy‐N‐((2‐methylpyridin‐3‐yl)methyl)‐7‐(3,3,3‐trifluoropropyl)‐4b,5,6,7,8,8a,9,10‐octahydrophenanthrene‐2‐carboxamide]: the 50% effective concentration (EC50) (commonly the midpoint of the concentration-response curve) amounted to 1.68 µM and the Emax was found to be 39%.

With `CC(C)(C)c1cc(C(C)(C)C)c(NC(=O)c2c[nH]c3ccccc3c2=O)cc1O` [ivacaftor, reference compound], the EC50 came out at 0.003 µM and the Emax turned out to be 97%.

These data come from PMC9304199, “A small molecule CFTR potentiator restores ATP‐dependent channel gating to the cystic fibrosis mutant G551D‐CFTR” (British Journal of Pharmacology, 2022).
